Experimental data reported in PMC10952689 (Angewandte Chemie (International Ed. in English), 2023).

Target: T1, human TRPV1 (Homo sapiens, UniProt Q8NER1)
T1 construct: expressed in transfected cells
Assay type: cell-based
Procedure: Oocytes were held at −60 mV and data normalised to currents elicited by 10 μM capsaicin. (D) Reversibility of DkTx and Y35G evoked rat TRPV1 response at the indicated peptide concentrations using TEVC oocytes. Data points represent the fraction of currents remaining during the washout as a ratio to the maximal current evoked by each sample. (E) Washout shown as fractional current determined by whole‐cell patch clamp recordings from HEK293 cells expressing TRPV1 (voltage‐clamped at −80 mV). […] The time constant for decay was not fitted and calculated in panels D and E, as it could not be accurately determined for data sets with minimal washout over the experimental time course. All data are mean ± standard error of the mean (n=5–7).

T1 sequence (Q8NER1 whole entry): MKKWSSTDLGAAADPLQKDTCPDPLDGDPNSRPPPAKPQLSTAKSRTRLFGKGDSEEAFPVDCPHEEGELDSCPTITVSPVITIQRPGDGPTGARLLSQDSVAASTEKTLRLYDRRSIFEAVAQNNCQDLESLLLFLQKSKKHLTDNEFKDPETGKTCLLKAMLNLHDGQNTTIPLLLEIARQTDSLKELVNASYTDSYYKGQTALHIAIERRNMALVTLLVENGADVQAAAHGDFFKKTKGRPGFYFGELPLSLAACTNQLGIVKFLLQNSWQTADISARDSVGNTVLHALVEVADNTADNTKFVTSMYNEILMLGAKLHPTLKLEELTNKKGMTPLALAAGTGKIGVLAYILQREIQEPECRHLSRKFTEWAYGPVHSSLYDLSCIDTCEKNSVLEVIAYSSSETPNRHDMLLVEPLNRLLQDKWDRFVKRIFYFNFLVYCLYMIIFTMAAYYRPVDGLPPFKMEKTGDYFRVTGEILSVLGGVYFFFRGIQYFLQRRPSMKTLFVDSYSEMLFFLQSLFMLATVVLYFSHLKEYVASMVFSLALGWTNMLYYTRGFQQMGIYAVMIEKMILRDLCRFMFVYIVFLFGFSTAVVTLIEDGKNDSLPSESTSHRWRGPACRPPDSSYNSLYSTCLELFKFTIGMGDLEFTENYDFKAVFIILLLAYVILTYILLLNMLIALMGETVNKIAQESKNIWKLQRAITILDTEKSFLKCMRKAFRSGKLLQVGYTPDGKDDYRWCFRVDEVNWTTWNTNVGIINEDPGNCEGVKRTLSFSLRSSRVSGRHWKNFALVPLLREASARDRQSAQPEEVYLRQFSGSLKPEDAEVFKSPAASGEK

SMILES	inhibition of iDkTx-evoked currents (10 μM ruthenium red against 2 μM iDkTx, +80 mV, HEK293, Figure 1E–F)	reversibility of TRPV1 current upon washing
N.N.N.N.N.N.N.N.N.N.N.N.N.N.[Cl-].[Cl-].[Cl-].[Cl-].[Cl-].[Cl-].[O-2].[O-2].[Ru+3].[Ru+3].[Ru+4] [ruthenium red]	fully inhibited	
COc1cc(CNC(=O)CCCC/C=C/C(C)C)ccc1O [capsaicin]		rapidly reversible upon washing
